Read-outs that look alike come from different tables or passages of the source.
Tests used:
[1] = target: T1, recombinant bovine CAII enzyme (bCAII) (Bos taurus, UniProt P00921); assay: Dansylamide (DNSA) displacement fluorescence assay on carbonic anhydrase catalytic site; assay type: binding
T1 construct: purchased Sigma-Aldrich; host or cells: E. coli
Description: The binding affinity of the compounds of formula (I) to Carbonic Anhydrase (CA) catalytic site was determined to assess the targeting efficacy of the molecular vectors, even after labeling the targeting ligand with the fluorescent portion of the probe.
Such enzyme in fact is highly available and has a catalytic site with high degree of homology in different carbonic anhydrase isoforms (Aggarwal M. et al., J Enzyme Inhib Med Chem 2013; 28(2): 267-277).
The dissociation constant (Ko) of compounds of formula (I) for bCAII was estimated by performing a fluorescence-based assay, exploiting the drop of fluorescence deriving from the displacement of carbonic anhydrase-bound dansylamide (DNSA) in presence of competitors and was adapted for application in 96-well plates from Wang S C et al., Biochem Mol Biol Educ. 2006, 34(5): 364-368. […] In both cases DNSA is excited at about 320 nm. Thus, excitation of carbonic anhydrase aromatic residues (Trp) at 285 nm generates an emission at 340 nm, that is quenched in presence of bound DNSA. The quenching occurs by FRET (fluorescence resonance energy transfer) to bound DNSA, which is in turn excited, emitting at 460 nm.
Molecules that bind to CA in the same binding site of DNSA, such as sulfonamides or derivatives, competitively displace DNSA from CA. The degree of displacement is function of the affinity of competitors and can be followed through the drop of fluorescence at 460 nm.
In detail, 5-(Dimethylamino)-1-naphthalenesulfonamide (dansylamide, DNSA, Sigma-Aldrich 218898) was reconstituted in 20 mM Tris pH 8, aliquoted and stored at −20° C.; bCAII (recombinant, expressed in E. Coli, Sigma-Aldrich) was divided in aliquots and stored at −20° C.
DNSA fluorescence emission at 462 nm from each well was recorded after excitation at 285 nm (Trp wavelength of excitation) and consequent selective excitation of DNSA bound to bCAII by FRET. Fractional saturation of bCAII was experimentally determined through normalization of fluorescence data between 1 (no compounds) and 0 (maximal DNSA displacement by presence of binding competitors), according to the equation below: […]
where r is fractional saturation, FLobs is the recorded fluorescence intensity, FLmin is the fluorescence intensity recorded at maximal concentration of compounds, and FLmax is fluorescence recorded in absence of compounds.
The KD of CA-binding compounds (=KDcomp) was then derived by mathematical fitting of experimental data according to the equation: […]
Mathematical fitting was performed using Microsoft Excel Solver.
All compounds were tested in triplicate.

[2] = Optical characterization (excitation/emission maxima, molar extinction coefficient); assay type: physicochemical; details: in water
[3] = test system: HT-29 tumor; assay: Ex vivo tumor-to-background ratio in excised HT-29 tumors; design: species or system mice; details: 1 nmol/mouse, samples collected 24 hours after administration; tumor vs hind limb muscle
Description: (§1) The ex vivo biodistribution of the representative compounds 1, 2 and 3 and of the reference compound HF-1 (at 1 nmol/mouse) was evaluated in HT-29 excised tumors and tissues at the end of the in vivo OI sessions 24 hours post intravenous administration. At the end of the in vivo experiment, animals were euthanized by overdose of gaseous anesthesia followed by cervical dislocation. Tumor tissue, muscle, and other organs of interest were removed for ex vivo fluorescent signal measurements. The fluorescence signal intensity was measured by the IVIS Spectrum system. Regions of interest (ROIs) were drawn around each organ and tumor using the Living Image Software (PerkinElmer) and evaluating signal intensity in the tissues (expressed as Average Radiant Efficiency). The ratio between the fluorescence signal in the organs and tumor was then calculated to assess the contrast to hind limb muscle (representing the background).

[4] = Optical characterization (excitation/emission maxima, molar extinction coefficient); assay type: physicochemical
Description: A dual-beam UV-VIS spectrophotometer (Lambda 40, Perkin Elmer) was used to determine the absorbance (Abs) of the compounds of the invention. Emission/excitation (Em/Ex) spectra were carried out on a spectrofluorometer (FluoroLog-3 1IHR-320, Horiba Jobin Yvon) equipped with an F-3018 integrating sphere accessory. The measurements were performed using an excitation wavelength at maximum absorbance of different dyes, and the sample was excited with a 450W Xenon Light Source. Detection was performed by photomultiplier tubes (PMT-NIR) cooled detector or by TBX-04 detector. Dye solutions were carefully prepared to have an absorbance lower than 0.1 (optical densities) to minimize re-absorption phenomena.
The compounds of the invention were characterized in terms of their optical properties in vitro in aqueous medium (i.e., water/PBS pH 7.4) and in a clinical chemistry control serum (Seronorm, Sero S A), mimicking the chemical composition and optical properties of human serum. All solutions were freshly prepared. In particular, the compounds of the invention are characterized by absorption maxima comprised in the range from about 750 nm to 780 nm.
The excitation and emission maxima in PBS and Seronorm and the molar extinction coefficient (E) in water of representative compounds of formula (I) are shown in Table I in comparison with the known CA-IX targeting fluorescent probe named Hypoxyfluor-1 (HF-1, for instance disclosed in Bioconjugate Chem 2018, 29, 3320-3331). […] Moreover, the extinction coefficients were higher than […] for all compounds.

[5] = target: T2, CA-IX (Homo sapiens, UniProt Q16790); assay: Cellular binding assessment by flow cytometry on CA-IX expressing HT-29 cells; details: 1 hour 30 min on ice, read-out: CA-IX receptor affinity (KD, to HT-29 cells)
T2 construct: host or cells: HT-29 human colorectal adenocarcinoma cells
Description: Human colon adenocarcinoma HT-29 cells (ATCC) used for the cellular binding experiments were cultured in McCoy's 5A medium (Sigma-Aldrich), supplemented with 10% HyClone Fetal Clone III (Euroclone), 2 mM L-glutamine (Sigma-Aldrich), 100 IU/mL penicillin, 0.1 mg/mL streptomycin, 0.25 μg/mL amphotericin B (Antibiotic-Antimycotic solution, Life Technologies) and cells were grown at 37° C. in humidified atmosphere enriched with 5% CO2. DPBS without MgCl2 and CaCl2 (Sigma-Aldrich) was used for cell rinsing.
Indeed, by using the anti-human CA-IX antibody MAB2188 (R&D Systems) and the DAKO […], according to the instruction of the datasheet, HT-29 cells were estimated to express about 150,000 CA-IX molecules per cell. Thus, HT-29 cells were used to measure the binding of all compounds to CA-IX, expressed in its physiological environment at the cell-surface. Briefly, HT-29 cells were detached with StemPro® Accutase® Cell Dissociation Reagent (Life Technologies), collected in DPBS and counted. At least 2·10^5 cells were placed in 1.5 mL tubes on ice and resuspended in 50-100 μL of cold FACS buffer (eBioscience™ Flow Cytometry Staining Buffer, Invitrogen) containing scalar concentrations of compounds (compound 1: range 1-5 μM; compounds 2 and 3: range 0-20 μM). After incubation (1 hour and 30 min on ice in the dark), cells were rinsed 3 times in 300 μL of cold FACS buffer by centrifugation (5 min, 4° C., 350 RCF), discarding the supernatant. Cell pellets were then resuspended in 200 μL of cold FACS buffer (or in a suitable volume in order to obtain no more than 1000 recorded events per μL during FACS analysis) and analyzed with the flow cytometer Accuri™ C6 (BD Biosciences). The mean cell-associated fluorescence was plotted against concentration and the dissociation constant at equilibrium (Ko) was inferred by mathematical fitting with GraphPad Prism v.9 software, according to the following equation: […]
where Bmax is the maximum specific binding in the same units as Y. KD is the equilibrium dissociation constant, in the same units as X. NS is the slope of nonspecific binding in Y units divided by X units. Background is the amount of nonspecific binding with no added Compound.
All compounds were analyzed in at least three independent experiments. The calculated KD are summarized in Table III and compared with the one obtained for HF-1.

[6] = Ex vivo biodistribution, organ-to-muscle ratio; assay type: in vivo, mice; details: 1 nmol/mouse, 24 hours after administration
Description: as §1
Moreover, FIG. 6 (b) and Table VIII show the accumulation and distribution of the fluorescent probes in the dissected organs, reporting the ex vivo values of organs-to-muscle ratio from samples collected at 24 hours after the administration of representative compounds 1, 2 and 3 and of the reference compound HF-1 (1 nmol/mouse).

[7] = injection into the patient; cited from earlier work

T1 sequence (P00921 whole entry): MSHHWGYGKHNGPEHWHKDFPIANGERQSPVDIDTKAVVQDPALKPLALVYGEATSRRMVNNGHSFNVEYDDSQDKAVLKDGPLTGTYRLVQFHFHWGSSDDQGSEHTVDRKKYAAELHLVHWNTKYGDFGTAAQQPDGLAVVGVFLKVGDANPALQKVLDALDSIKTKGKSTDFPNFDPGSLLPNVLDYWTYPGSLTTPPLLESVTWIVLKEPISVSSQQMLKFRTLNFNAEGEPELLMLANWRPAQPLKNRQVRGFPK

CN(C)c1cccc2c(S(N)(=O)=O)cccc12 [DNSA, 5-(Dimethylamino)-1-naphthalenesulfonamide, reference compound]
Kd ([1]; previously experimentally determined, read-out: dissociation constant at equilibrium of DNSA (KDDNSA)): 170 nM

CC1(C)C(/C=C/C2=C(Oc3ccc(CCC(=O)NCCCCCCCC(=O)Nc4nnc(S(N)(=O)=O)s4)cc3)C(=C/C=C3/N(CCCCS(=O)(=O)O)c4ccc(S(=O)(=O)O)cc4C3(C)C)/CCC2)=[N+](CCCCS(=O)(=O)[O-])c2ccc(S(=O)(=O)O)cc21 [HF-1, reference compound]
molar extinction coefficient (ε) [2]: 255000 M⁻¹ cm⁻¹ | ex vivo TBR ± SD, HT-29 tumor [3]: 3.1 ± 0.3 | Max Em ([4]; PBS pH 7.4): 798 nm | Max Ex ([4]; PBS pH 7.4): 772 nm | Max Em ([4]; Seronorm): 808 nm | Max Ex ([4]; Seronorm): 792 nm | Kd [5]: 115 ± 8 nM | Organ-to-muscle ratio, intestine [6]: 2.2 ± 1.3 | Organ-to-muscle ratio, kidney [6]: 2.4 ± 0.3 | Organ-to-muscle ratio, liver [6]: 5.7 ± 0.2 | Organ-to-muscle ratio, skin [6]: 1.4 ± 0.0 | Organ-to-muscle ratio, spleen [6]: 1.4 ± 0.3 | Organ-to-muscle ratio, stomach [6]: 4.0 ± 1.7 | Kd ([1]; 0.25 μM bCAII, 5 μM DNSA, 20 mM Tris pH 8, triplicate, read-out: CAII receptor affinity (KD)): 9.5 ± 1 nM

^124I-cG250: chimeric version of monoclonal antibody G250 labelled with the radionuclide 124I
time after injection to reach tumor/blood ratios suitable for imaging [7]: 2 to 7 days

From patent US20250352675A1, “CA-IX TARGETING FLUORESCENT PROBES” (BRACCO IMAGING S.P.A., priority 2022, published 2025)
